Measured values: patent publication EP4667467A1, “PROTAC DEGRADERS OF MLLT1 AND/OR MLLT3” (Dark Blue Therapeutics Ltd, priority 2024, dated 2025)

Biological target: T1, MLLT1 (Homo sapiens, UniProt Q03111)
T1 construct: endogenous in cells; host or cells: MV4-11 (ATCC CRL-9591)
T1 sequence (Q03111 1-559): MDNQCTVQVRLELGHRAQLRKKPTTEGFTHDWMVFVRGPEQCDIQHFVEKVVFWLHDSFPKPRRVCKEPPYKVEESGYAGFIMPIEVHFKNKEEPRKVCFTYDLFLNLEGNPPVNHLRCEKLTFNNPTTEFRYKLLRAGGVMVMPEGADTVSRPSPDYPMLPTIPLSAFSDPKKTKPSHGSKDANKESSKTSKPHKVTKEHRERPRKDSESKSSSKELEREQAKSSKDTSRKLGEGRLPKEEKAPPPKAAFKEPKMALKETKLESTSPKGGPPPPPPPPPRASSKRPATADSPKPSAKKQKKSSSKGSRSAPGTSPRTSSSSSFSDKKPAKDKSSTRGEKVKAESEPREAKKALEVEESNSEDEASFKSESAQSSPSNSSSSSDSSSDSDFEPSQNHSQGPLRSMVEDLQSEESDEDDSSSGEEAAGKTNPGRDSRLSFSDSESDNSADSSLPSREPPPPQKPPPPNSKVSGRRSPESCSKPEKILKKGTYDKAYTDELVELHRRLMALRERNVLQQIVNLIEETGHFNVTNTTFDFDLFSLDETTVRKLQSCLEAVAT
Assay: MLLT1 Degradation Assay (JESS automated chemiluminescent detection, MV4-11 cells)
Type: cell-based
Settings: 24h, with respect to DMSO control; for MLLT1 % Degradation @ 0.1 µM: 0.1 µM (100 nM) test compound; for MLLT 1 % Degradation @ 1 µM: 1 µM (1000 nM) test compound; for MLLT1 % Degradation @ 0.01 µM: 0.01 µM (10 nM) test compound
Method: MLLT1 degradation efficacy of compounds were tested in an automated chemiluminescent detection system (JESS, Cat# 004-650). […] 10 mM DMSO stocks were prepared, and cells were treated with three concentrations of test compounds viz. 1000, 100 and 10 nM at a final DMSO concentration of 0.1% and incubated for 24h at 37°C, 5% CO2. […] Post run, data were analysed using "Compass for SW" software for chemiluminescent detection. The peak area for each band was used for the calculation of MLLT1 degradation with respect to DMSO control. Data is shown as "MLLT1 % degradation".

SMILES	MLLT1 % Degradation @ 0.1 µM	MLLT1 % Degradation @ 0.01 µM	MLLT 1 % Degradation @ 1 µM
CN1CCC[C@@H]1c1cc2cnc(NC(=O)c3ccc(OCC#Cc4cccc5c4CN(C4CCC(=O)NC4=O)C5=O)c(Cl)c3)cc2[nH]1 (stereo partly drawn) [Example 23, 3-chloro-4-((3-(2-(2,6-dioxopiperidin-3-yl)-1-oxoisoindolin-4-yl)prop-2-yn-1-yl)oxy)-N-(2-((R)-1-methylpyrrolidin-2-yl)-1H-pyrrolo[3,2-c]pyridin-6-yl)benzamide]	C (Category C: 25% ≤ C < 50% degradation)	C (Category C: 25% ≤ C < 50% degradation)	C (Category C: 25% ≤ C < 50% degradation)
CN1CCC[C@@H]1c1cc2cnc(NC(=O)c3ccc(CCCNc4cccc5c4C(=O)N(C4CCC(=O)NC4=O)C5=O)cc3)cc2[nH]1 (stereo partly drawn) [Example 36, 4-(3-{[2-(2,6-dioxopiperidin-3-yl)-1,3-dioxoisoindol-4-yl]amino}propyl)-N-{2-[(2R)-1-methylpyrrolidin-2-yl]-1H-pyrrolo[3,2-c]pyridin-6-yl}benzamide]	A (Category A: A ≥ 75% degradation)	A (Category A: A ≥ 75% degradation)	A (Category A: A ≥ 75% degradation)
CN1CCC[C@@H]1c1[nH]c2cc(NC(=O)c3ccc(N4CCN(CC#Cc5cccc6c5CN(C5CCC(=O)NC5=O)C6=O)CC4)nc3)ncc2c1Cl (stereo partly drawn) [Example 72, N-(3-chloro-2-((R)-1-methylpyrrolidin-2-yl)-1H-pyrrolo[3,2-c]pyridin-6-yl)-6-(4-(3-(2-(2,6-dioxopiperidin-3-yl)-1-oxoisoindolin-4-yl)prop-2-yn-1-yl)piperazin-1-yl)nicotinamide]	A (Category A: A ≥ 75% degradation)	A (Category A: A ≥ 75% degradation)	C (Category C: 25% ≤ C < 50% degradation)
CN1CCC[C@@H]1c1cc2cnc(NC(=O)c3ccc(N4CCN(CC5CCN(c6cccc7c6C(=O)N(C6CCC(=O)NC6=O)C7=O)CC5)CC4)nc3)cc2[nH]1 (stereo partly drawn) [Example 5, 6-(4-((1-(2-(2,6-dioxopiperidin-3-yl)-1,3-dioxoisoindolin-4-yl)piperidin-4-yl)methyl)piperazin-1-yl)-N-(2-((R)-1-methylpyrrolidin-2-yl)-1H-pyrrolo[3,2-c]pyridin-6-yl)nicotinamide]	A (Category A: A ≥ 75% degradation)	B (Category B: 50% ≤ B < 75% degradation)	A (Category A: A ≥ 75% degradation)
CN1CCC[C@@H]1c1cc2cnc(NC(=O)N3CCC(CCC#Cc4cccc5c4CN(C4CCC(=O)NC4=O)C5=O)CC3)cc2[nH]1 (stereo partly drawn) [Example 1, 4-(4-(2-(2,6-dioxopiperidin-3-yl)-1-oxoisoindolin-4-yl)but-3-yn-1-yl)-N-(2-((R)-1-methylpyrrolidin-2-yl)-1H-pyrrolo[3,2-c]pyridin-6-yl)piperidine-1-carboxamide]	C (Category C: 25% ≤ C < 50% degradation)	C (Category C: 25% ≤ C < 50% degradation)	C (Category C: 25% ≤ C < 50% degradation)
CN1CCC[C@@H]1c1cc2cnc(NC(=O)c3ccc(CCCCC#Cc4cccc(N5CCC(=O)NC5=O)n4)cc3)cc2[nH]1 [Example 9, (R)-4-(6-(6-(2,4-dioxotetrahydropyrimidin-1(2H)-yl)pyridin-2-yl)hex-5-yn-1-yl)-N-(2-(1-methylpyrrolidin-2-yl)-1H-pyrrolo[3,2-c]pyridin-6-yl)benzamide]	A (Category A: A ≥ 75% degradation)	A (Category A: A ≥ 75% degradation)	A (Category A: A ≥ 75% degradation)
CN1CCC[C@@H]1c1cc2cnc(NC(=O)c3ccc(CCCC#Cc4cccc5c4CN(C4CCC(=O)NC4=O)C5=O)cc3)cc2[nH]1 (stereo partly drawn) [Example 55, 4-(5-(2-(2,6-dioxopiperidin-3-yl)-1-oxoisoindolin-4-yl)pent-4-yn-1-yl)-N-(2-((R)-1-methylpyrrolidin-2-yl)-1H-pyrrolo[3,2-c]pyridin-6-yl)benzamide]	A (Category A: A ≥ 75% degradation)	A (Category A: A ≥ 75% degradation)	A (Category A: A ≥ 75% degradation)
CN1CCC[C@@H]1c1cc2cnc(NC(=O)COCCCCNc3cccc4c3C(=O)N(C3CCC(=O)NC3=O)C4=O)cc2[nH]1 (stereo partly drawn) [Example 40, 2-(4-((2-(2,6-dioxopiperidin-3-yl)-1,3-dioxoisoindolin-4-yl)amino)butoxy)-N-(2-((R)-1-methylpyrrolidin-2-yl)-1H-pyrrolo[3,2-c]pyridin-6-yl)acetamide]	C (Category C: 25% ≤ C < 50% degradation)	–	B (Category B: 50% ≤ B < 75% degradation)
CN1CCC[C@@H]1c1cc2cnc(NC(=O)CCCCCCNc3ccc4c(c3)C(=O)N(C3CCC(=O)NC3=O)C4=O)cc2[nH]1 (stereo partly drawn) [Example 27, 7-{[2-(2,6-dioxopiperidin-3-yl)-1,3-dioxoisoindol-5-yl]amino}-N-{2-[(2R)-1-methylpyrrolidin-2-yl]-1H-pyrrolo[3,2-c]pyridin-6-yl}heptanamide]	C (Category C: 25% ≤ C < 50% degradation)	C (Category C: 25% ≤ C < 50% degradation)	B (Category B: 50% ≤ B < 75% degradation)

Continued, in another order:

MLLT1 % Degradation @ 0.1 µM	MLLT1 % Degradation @ 0.01 µM	SMILES	MLLT 1 % Degradation @ 1 µM
A (Category A: A ≥ 75% degradation)	–	CN1CCC[C@@H]1c1cc2cnc(NC(=O)c3ccc(-c4cnn(CCCC5CCN(c6cccc7c6C(=O)N(C6CCC(=O)NC6=O)C7=O)CC5)c4)cc3)cc2[nH]1 (stereo partly drawn) [Example 34, 4-[1-(3-{1-[2-(2,6-dioxopiperidin-3-yl)-1,3-dioxoisoindol-4-yl]piperidin-4-yl}propyl)pyrazol-4-yl]-N-{2-[(2R)-1-methylpyrrolidin-2-yl]-1H-pyrrolo[3,2-c]pyridin-6-yl}benzamide]	A (Category A: A ≥ 75% degradation)
A (Category A: A ≥ 75% degradation)	A (Category A: A ≥ 75% degradation)	CN1CCC[C@@H]1c1cc2cnc(NC(=O)c3ccc(N4CCC(C#Cc5cccc6c5CN(C5CCC(=O)NC5=O)C6=O)CC4)nc3)cc2[nH]1 (stereo partly drawn) [Example 17, 6-(4-((2-(2,6-dioxopiperidin-3-yl)-1-oxoisoindolin-4-yl)ethynyl)piperidin-1-yl)-N-(2-((R)-1-methylpyrrolidin-2-yl)-1H-pyrrolo[3,2-c]pyridin-6-yl)nicotinamide]	A (Category A: A ≥ 75% degradation)
A (Category A: A ≥ 75% degradation)	A (Category A: A ≥ 75% degradation)	CN1CCC[C@@H]1c1cc2cnc(NC(=O)c3ccc(N4CCN(CC#Cc5cccc6c5CN(C5CCC(=O)NC5=O)C6=O)CC4)nc3)cc2[nH]1 (stereo partly drawn) [Example 6, 6-(4-(3-(2-(2,6-dioxopiperidin-3-yl)-1-oxoisoindolin-4-yl)prop-2-yn-1-yl)piperazin-1-yl)-N-(2-((R)-1-methylpyrrolidin-2-yl)-1H-pyrrolo[3,2-c]pyridin-6-yl)nicotinamide]	B (Category B: 50% ≤ B < 75% degradation)
A (Category A: A ≥ 75% degradation)	A (Category A: A ≥ 75% degradation)	CN1CCC[C@@H]1c1cc2cnc(NC(=O)c3ccc(N4CCC(CC#Cc5cccc6c5CN(C5CCC(=O)NC5=O)C6=O)CC4)nc3)cc2[nH]1 (stereo partly drawn) [Example 16, 6-(4-(3-(2-(2,6-dioxopiperidin-3-yl)-1-oxoisoindolin-4-yl)prop-2-yn-1-yl)piperidin-1-yl)-N-(2-((R)-1-methylpyrrolidin-2-yl)-1H-pyrrolo[3,2-c]pyridin-6-yl)nicotinamide]	B (Category B: 50% ≤ B < 75% degradation)
A (Category A: A ≥ 75% degradation)	A (Category A: A ≥ 75% degradation)	CN1CCC[C@@H]1c1cc2cnc(NC(=O)c3ccc(N4CCC(c5ccc(-c6cccc7c6CN(C6CCC(=O)NC6=O)C7=O)cc5)CC4)nc3)cc2[nH]1 (stereo partly drawn) [Example 67, 6-(4-(4-(2-(2,6-dioxopiperidin-3-yl)-1-oxoisoindolin-4-yl)phenyl)piperidin-1-yl)-N-(2-((R)-1-methylpyrrolidin-2-yl)-1H-pyrrolo[3,2-c]pyridin-6-yl)nicotinamide]	A (Category A: A ≥ 75% degradation)
D (Category D: D < 25% degradation)	D (Category D: D < 25% degradation)	CN1CCC[C@@H]1c1cc2cnc(NC(=O)c3cnn(CCCC4CCN(c5cccc6c5C(=O)N(C5CCC(=O)NC5=O)C6=O)CC4)c3)cc2[nH]1 (stereo partly drawn) [Example 38, 1-(3-{1-[2-(2,6-dioxopiperidin-3-yl)-1,3-dioxoisoindol-4-yl]piperidin-4-yl}propyl)-N-{2-[(2R)-1-methylpyrrolidin-2-yl]-1H-pyrrolo[3,2-c]pyridin-6-yl}pyrazole-4-carboxamide]	C (Category C: 25% ≤ C < 50% degradation)
